Test results: US12187709B2 (Genentech, Inc., priority 2021, dated 2025)

How the values were obtained:
c-Cbl = c-Cbl (Homo sapiens (Human), UniProt P22681); test: C-Cbl LCK Ub TR-FRET assay (C-cbl Lck HTRF); format: biochemical
Method in brief: (§1)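 Detection reagents added, brief spin, 20 min RT. IC50 fit normalized to no-LCK (low) and DMSO (high) controls.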

[1] = target: Human Cbl-b (residues 40-426) (Homo sapiens (Human), UniProt Q13191); test: Cbl-b SPR assay; format: binding; details: for Fold of selectivity: C-cbl SPR Kd vs Cbl-b SPR Kd; for Kd: SPR, 20° C.
Method in brief: (§2)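 Binding is measured by surface plasmon resonance against both isoforms, with double referencing and 1:1 kinetic fitting. Dissociation time is tuned to 4-5 half-lives.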

c-Cbl (residues 47-435) = c-Cbl (residues 47-435) (Homo sapiens (Human), UniProt P22681); test: c-Cbl SPR assay; format: binding; details: 20° C.
Method in brief: as §2

Cbl-b = Cbl-b (Homo sapiens (Human), UniProt Q13191); test: Cbl-b LCK Ub TR-FRET assay (Cbl-b Lck HTRF); format: biochemical; details: for IC50: Cbl-b LCK Ub TR-FRET; for fold-selectivity (Cbl-b over C-cbl): ratio C-cbl Lck HTRF IC50 / Cbl-b Lck HTRF IC50
Method in brief: as §1

c-Cbl, sequence (P22681 47-435): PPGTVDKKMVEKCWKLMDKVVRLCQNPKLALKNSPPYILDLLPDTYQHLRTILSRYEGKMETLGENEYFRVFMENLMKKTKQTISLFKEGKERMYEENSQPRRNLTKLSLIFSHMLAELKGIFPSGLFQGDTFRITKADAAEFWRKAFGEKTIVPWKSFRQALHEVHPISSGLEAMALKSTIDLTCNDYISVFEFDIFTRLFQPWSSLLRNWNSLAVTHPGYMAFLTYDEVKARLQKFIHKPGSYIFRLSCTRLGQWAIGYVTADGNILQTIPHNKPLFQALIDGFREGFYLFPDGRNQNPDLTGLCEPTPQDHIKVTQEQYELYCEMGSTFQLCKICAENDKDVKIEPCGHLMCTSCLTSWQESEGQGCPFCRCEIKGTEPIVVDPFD
c-Cbl (residues 47-435), sequence (P22681 47-435): as above
Human Cbl-b (residues 40-426), sequence (Q13191 40-426): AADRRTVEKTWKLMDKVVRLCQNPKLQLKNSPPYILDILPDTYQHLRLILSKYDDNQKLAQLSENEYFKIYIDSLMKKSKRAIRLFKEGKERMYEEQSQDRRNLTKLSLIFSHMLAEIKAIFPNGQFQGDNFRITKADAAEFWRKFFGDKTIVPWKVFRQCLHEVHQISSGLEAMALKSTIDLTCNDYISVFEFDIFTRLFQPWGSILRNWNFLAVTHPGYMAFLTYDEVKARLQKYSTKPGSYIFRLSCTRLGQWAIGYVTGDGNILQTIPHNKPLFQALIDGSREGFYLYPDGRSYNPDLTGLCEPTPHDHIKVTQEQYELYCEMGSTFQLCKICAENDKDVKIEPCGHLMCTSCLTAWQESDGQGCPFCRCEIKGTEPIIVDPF
Cbl-b, sequence (Q13191 40-426): as above

IC50 (c-Cbl) [nM]	Fold of selectivity [1] [×]	Kd [1] [nM]	Kd (c-Cbl (residues 47-435)) [nM]	IC50 (Cbl-b) [nM]	fold-selectivity (Cbl-b over C-cbl) (Cbl-b)	SMILES
43	6.9	3.3	23	11	3.9x	CO[C@H]1C[C@@](c2cc(NC3CCCC3)nc(N3Cc4c(cc(CNC5(C)CCC5)cc4C(F)(F)F)C3=O)c2)(c2nncn2C)C1 [Compound 8, 2-(6-(cyclopentylamino)-4-((1s,3s)-3-methoxy-1-(4-methyl-4H-1,2,4-triazol-3-yl)cyclobutyl)pyridin-2-yl)-6-(((1-methylcyclobutyl)amino)methyl)-4-(trifluoromethyl)isoindolin-1-one]
118	20	11	220	11	8.4x	CO[C@H]1C[C@](c2cc(NC3CCCC3)nc(N3Cc4c(cc(CNC5(C)CCC5)cc4C(F)(F)F)C3=O)c2)(c2nncn2C)C1 [Compound 9, 2-(6-(cyclopentylamino)-4-((1r,3r)-3-methoxy-1-(4-methyl-4H-1,2,4-triazol-3-yl)cyclobutyl)pyridin-2-yl)-6-(((1-methylcyclobutyl)amino)methyl)-4-(trifluoromethyl)isoindolin-1-one]
5.2	1.3	0.25	0.34	6.9	(0.75x)	Cn1cnnc1C1(c2cc(C3CC3)nc(N3Cc4c(cc(CNC5(C)CCC5)cc4C(F)(F)F)C3=O)c2)CC(F)(F)C1 [Compound 16, 2-(6-cyclopropyl-4-(3,3-difluoro-1-(4-methyl-4H-1,2,4-triazol-3-yl)cyclobutyl)pyridin-2-yl)-6-(((1-methylcyclobutyl)amino)methyl)-4-(trifluoromethyl)isoindolin-1-one]
5.1	3.2	0.37	1.1	5.5	(0.93x)	CCNc1cc(C2(c3nncn3C)CC(F)(F)C2)cc(N2Cc3c(cc(CNC4(C)CCC4)cc3C(F)(F)F)C2=O)n1 [Compound 17, 2-(4-(3,3-difluoro-1-(4-methyl-4H-1,2,4-triazol-3-yl)cyclobutyl)-6-(ethylamino)pyridin-2-yl)-6-(((1-methylcyclobutyl)amino)methyl)-4-(trifluoromethyl)isoindolin-1-one]
7.7	3.7	1.5	5.6	7.9	(0.97x)	C=C1CC(c2cccc(N3Cc4c(cc(CNC5(C)CCC5)cc4C(F)(F)F)C3=O)c2)(c2nncn2C)C1 [Compound 18, 2-(3-(1-(4-methyl-4H-1,2,4-triazol-3-yl)-3-methylenecyclobutyl)phenyl)-6-(((1-methylcyclobutyl)amino)methyl)-4-(trifluoromethyl)-isoindolin-1-one]
176	5.0	40	200	88	(2.0x)	Cn1cnnc1C1(c2cccc(N3Cc4c(cc(CNC5(C)CCC5)cc4C(F)(F)F)C3=O)c2)CC(=O)C1 [Compound 19, 2-(3-(1-(4-methyl-4H-1,2,4-triazol-3-yl)-3-oxocyclobutyl)phenyl)-6-(((1-methylcyclobutyl)-amino)methyl)-4-(trifluoromethyl)isoindolin-1-one]
390	4.4	80	350	170	(2.3x)	Cn1cnnc1[C@]1(c2cccc(N3Cc4c(cc(CNC5(C)CCC5)cc4C(F)(F)F)C3=O)c2)C[C@@H](O)C1 [Compound 20, 2-(3-((1r,3r)-3-hydroxy-1-(4-methyl-4H-1,2,4-triazol-3-yl)cyclobutyl)phenyl)-6-(((1-methylcyclobutyl)amino)methyl)-4-(trifluoromethyl)isoindolin-1-one]
41	5.3	4.1	22	18	(2.3x)	Cn1cnnc1[C@]1(c2cccc(N3Cc4c(cc(CNC5(C)CCC5)cc4C(F)(F)F)C3=O)c2)C[C@H](O)C1 [Compound 21, 2-(3-((1s,3s)-3-hydroxy-1-(4-methyl-4H-1,2,4-triazol-3-yl)cyclobutyl)phenyl)-6-(((1-methylcyclobutyl)amino)methyl)-4-(trifluoromethyl)isoindolin-1-one]
23	8.4	1.7	15	13	(1.8x)	Cn1cnnc1[C@]1(c2cccc(N3Cc4c(cc(CNC5(C)CCC5)cc4C(F)(F)F)C3=O)c2)C[C@@H](C#N)C1 [Compound 24, (1r,3r)-3-(4-methyl-4H-1,2,4-triazol-3-yl)-3-(3-(6-(((1-methylcyclobutyl)amino)methyl)-1-oxo-4-(trifluoromethyl)isoindolin-2-yl)phenyl)cyclobutanecarbonitrile]
36	5.4	4	22	14	(2.6x)	Cn1cnnc1[C@]1(c2cccc(N3Cc4c(cc(CNC5(C)CCC5)cc4C(F)(F)F)C3=O)c2)C[C@H](C#N)C1 [Compound 25, (1s,3s)-3-(4-methyl-4H-1,2,4-triazol-3-yl)-3-(3-(6-(((1-methylcyclobutyl)amino)methyl)-1-oxo-4-(trifluoromethyl)isoindolin-2-yl)phenyl)cyclobutanecarbonitrile]
99	9.0	10	90	30	(3.3x)	Cn1cnnc1[C@]1(c2cccc(N3Cc4c(cc(CNC5(C)CCC5)cc4C(F)(F)F)C3=O)c2)C[C@](C)(O)C1 [Compound 26, 2-(3-((1s,3s)-3-hydroxy-3-methyl-1-(4-methyl-4H-1,2,4-triazol-3-yl)cyclobutyl)phenyl)-6-(((1-methylcyclobutyl)amino)methyl)-4-(trifluoromethyl)isoindolin-1-one]
510	7.2	60	430	170	(3.0x)	Cn1cnnc1[C@]1(c2cccc(N3Cc4c(cc(CNC5(C)CCC5)cc4C(F)(F)F)C3=O)c2)C[C@@](C)(O)C1 [Compound 27, 2-(3-((1r,3r)-3-hydroxy-3-methyl-1-(4-methyl-4H-1,2,4-triazol-3-yl)cyclobutyl)phenyl)-6-(((1-methylcyclobutyl)amino)methyl)-4-(trifluoromethyl)isoindolin-1-one]
35	5.5	2.5	13	13	(2.7x)	CO[C@]1(C)C[C@@](c2cccc(N3Cc4c(cc(CNC5(C)CCC5)cc4C(F)(F)F)C3=O)c2)(c2nncn2C)C1 [Compound 28, 2-(3-((1r,3r)-3-methoxy-3-methyl-1-(4-methyl-4H-1,2,4-triazol-3-yl)cyclobutyl)phenyl)-6-(((1-methylcyclobutyl)amino)methyl)-4-(trifluoromethyl)isoindolin-1-one]
27	3.8	2.6	9.8	17	(1.6x)	Cn1cnnc1[C@]1(c2cccc(N3Cc4c(cc(CNC5(C)CCC5)cc4C(F)(F)F)C3=O)c2)C[C@](C)(F)C1 [Compound 30, 2-(3-((1s,3s)-3-fluoro-3-methyl-1-(4-methyl-4H-1,2,4-triazol-3-yl)cyclobutyl)phenyl)-6-(((1-methylcyclobutyl)amino)methyl)-4-(trifluoromethyl)isoindolin-1-one]
11	0.6	4	2.3	12	(0.94x)	Cn1cnnc1[C@]1(c2cccc(N3Cc4c(cc(CNC5(C)CCC5)cc4C(F)(F)F)C3=O)c2)C[C@H](C)C1 [Compound 34, 2-(3-((1s,3s)-3-methyl-1-(4-methyl-4H-1,2,4-triazol-3-yl)cyclobutyl)phenyl)-6-(((1-methylcyclobutyl)amino)methyl)-4-(trifluoromethyl)isoindolin-1-one]
8.8	3.4	0.5	1.7	9.1	(0.97x)	Cn1cnnc1[C@]1(c2cccc(N3Cc4c(cc(CNC5(C)CCC5)cc4C(F)(F)F)C3=O)c2)C[C@@H](C)C1 [Compound 35, 2-(3-((1r,3r)-3-methyl-1-(4-methyl-4H-1,2,4-triazol-3-yl)cyclobutyl)phenyl)-6-(((1-methylcyclobutyl)amino)methyl)-4-(trifluoromethyl)isoindolin-1-one]
15	3.0	3.8	11	10	(1.5x)	Cn1cnnc1[C@]1(c2cc(NC3CC(F)(F)C3)nc(N3Cc4c(cc(CNC5(C)CCC5)cc4C(F)(F)F)C3=O)c2)C[C@@H](C)C1 [Compound 48, 2-(6-((3,3-difluorocyclobutyl)amino)-4-((1r,3r)-3-methyl-1-(4-methyl-4H-1,2,4-triazol-3-yl)cyclobutyl)pyridin-2-yl)-6-(((1-methylcyclobutyl)amino)methyl)-4-(trifluoromethyl)isoindolin-1-one]
